The text below walks through data of patent US20070265306A1, “4-[(3-fluorophenoxy)phenylmethyl]piperidine methanesulfonate: uses, process of synthesis and pharmaceutical compositions” (priority 2006, published 2007).

For data set [1] the following is noted: as mentioned in U.S. Pat. No. 6,518,284 B2 and EP1002794; cited from earlier work.
A short description of data set [2]: hygroscopicity. Type of data set: physicochemical.
Data set [3] has as its system dorsal raphe serotonergic neurones. The note with it: in vivo; cited from earlier work.
In data set [4] the test system is 5-HTP-induced syndrome. The note with it: mice, orally administered, acute; cited from earlier work.
Data set [5] relates to apomorphine-induced hypothermia. The settings on record: mice, orally administered, acute; cited from earlier work.
In data set [6] the test system is immobility in the tail suspension test. The note with it: mice, orally administered, acute; cited from earlier work.
The subject of data set [7] is immobility in the forced swimming test. The settings on record: mice, 30 mg/kg, p.o.; cited from earlier work.
The test system is the same in data set [8]. The note with it: rats, 30 mg/kg, p.o.; cited from earlier work.
Data set [9] relates to hyperactivity induced by olfactory bulbectomy. The note with it: rats, chronic administration 14 days, 30 mg kg(−1) day(−1), p. o.; cited from earlier work.
For data set [10], the system named is social interaction time. The settings on record: rats, 14 days, 30 mg kg(−1) day(−1), p. o.; cited from earlier work.
The nature of data set [11]: studies of stability under forced conditions. Type of data set: physicochemical. On the procedure: Additionally, the compound of formula I has shown excellent stability properties. The compound of formula I has remained stable for at least 6 months in studies of stability under forced conditions at 50 and 60° C., as well as at 40° C. and 75% humidity. This represents more than 2 years of stability under normal conditions.

Structures are written as SMILES. Counter-ions that a name gives are not always drawn. Like-named read-outs stand apart in the source and are kept apart here.

`Fc1cccc(O[C@H](c2ccccc2)C2CCNCC2)c1` (as salt: fumaric acid salt) [(S)-4-[(3-fluorophenoxy)phenylmethyl]piperidine]: the melting point (usually the temperature, or range, at which the solid turns liquid) lay within 105 to 108 °C.
With `Fc1cccc(OC(c2ccccc2)C2CCNCC2)c1` (racemic) [4-[(3-fluorophenoxy)phenylmethyl]piperidine], the solubility in water entry in data set [1] was “insoluble in water”.
Compound `Cl.Fc1cccc(O[C@H](c2ccccc2)C2CCNCC2)c1` [(S)-4-[(3-fluorophenoxy)phenylmethyl]piperidine hydrochloric acid salt] registered a melting point of 55 to 60 °C. The hygroscopicity result in [2] is “hygroscopic”.
Regarding `Fc1cccc(O[C@H](c2ccccc2)C2CCNCC2)c1.O=S(=O)(O)O` [(S)-4-[(3-fluorophenoxy)phenylmethyl]piperidine sulphuric acid salt], the hygroscopicity entry in data set [2] is recorded as “hygroscopic”.
Regarding `Fc1cccc(O[C@H](c2ccccc2)C2CCNCC2)c1` [(S)-4-[(3-fluorophenoxy)phenylmethyl]piperidine], in data set [3], the “ED50, decrease of electrical activity of dorsal raphe serotonergic neurones” value was 530.3 µg/kg. The “minimal effective dose (MED), potentiation of 5-HTP-induced syndrome” value in data set [4] is listed as 10 mg/kg. Besides, the “ED50, antagonism of hypothermia induced by a high dose of apomorphine” value in data set [5] was 2 mg/kg. For the same compound, the “MED, reduction of immobility in the tail suspension test” value in data set [6] is 10 mg/kg. In addition, the “immobility in the forced swimming test” value in data set [7] and in data set [8] was “decreases the immobility” each time. In addition, in data set [9], the “hyperactivity induced by olfactory bulbectomy” value was “attenuates the hyperactivity”. Besides, the social interaction time result in [10] is “significantly increases”.
`CS(=O)(=O)O.Fc1cccc(OC(c2ccccc2)C2CCNCC2)c1` (stereo not drawn) [compound of formula I, 4-[(3-fluorophenoxy)phenylmethyl]piperidine methanesulfonic acid salt]: the “time remained stable under forced conditions” value in data set [11] (40° C. and 75% humidity) was “at least 6 months”; in data set [11] (50° C.), “at least 6 months”; in [11] (60° C.), “at least 6 months”. Also, the “stability under normal conditions” value in data set [11] (normal conditions, extrapolated from forced conditions) is reported as “more than 2 years”. Moreover, the hygroscopicity result in [2] is listed as “not hygroscopic”.
